Where a SMILES comes first, the peptide text is derived from it. Bridges are numbered along the chain shown (N, C = ends). [ ]: non-standard residue; d: D form.
How the values were obtained:
E. coli iPGM = E. coli iPGM (Escherichia coli, UniProt P37689); assay: biochemical
B. malayi iPGM = B. malayi iPGM (Brugia malayi, UniProt Q4VWF8); assay: biochemical
O. volvulus iPGM = O. volvulus iPGM (Onchocerca volvulus, UniProt I6LDA6); assay: biochemical
D. immitis iPGM = format: biochemical, Dirofilaria immitis
[1] = read-out: E. coli iPGM Max Inhibition
[2] = read-out: B. malayi iPGM Max Inhibition
[3] = read-out: O. volvulus iPGM Max Inhibition

Sequence of B. malayi iPGM (Q4VWF8 whole entry, looked up): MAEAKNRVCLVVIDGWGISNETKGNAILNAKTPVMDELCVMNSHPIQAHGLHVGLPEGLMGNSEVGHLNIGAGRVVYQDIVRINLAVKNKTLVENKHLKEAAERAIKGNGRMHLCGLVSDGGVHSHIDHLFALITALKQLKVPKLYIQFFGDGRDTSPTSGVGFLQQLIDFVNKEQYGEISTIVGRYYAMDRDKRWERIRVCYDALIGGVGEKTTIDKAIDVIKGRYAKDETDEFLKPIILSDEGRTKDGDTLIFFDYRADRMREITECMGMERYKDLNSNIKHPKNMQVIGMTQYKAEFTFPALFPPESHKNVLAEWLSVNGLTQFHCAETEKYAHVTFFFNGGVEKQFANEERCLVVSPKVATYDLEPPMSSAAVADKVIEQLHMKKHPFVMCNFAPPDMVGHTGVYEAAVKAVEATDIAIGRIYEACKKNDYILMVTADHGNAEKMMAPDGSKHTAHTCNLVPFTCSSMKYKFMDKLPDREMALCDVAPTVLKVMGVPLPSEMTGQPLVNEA
Sequence of O. volvulus iPGM (I6LDA6 whole entry, looked up): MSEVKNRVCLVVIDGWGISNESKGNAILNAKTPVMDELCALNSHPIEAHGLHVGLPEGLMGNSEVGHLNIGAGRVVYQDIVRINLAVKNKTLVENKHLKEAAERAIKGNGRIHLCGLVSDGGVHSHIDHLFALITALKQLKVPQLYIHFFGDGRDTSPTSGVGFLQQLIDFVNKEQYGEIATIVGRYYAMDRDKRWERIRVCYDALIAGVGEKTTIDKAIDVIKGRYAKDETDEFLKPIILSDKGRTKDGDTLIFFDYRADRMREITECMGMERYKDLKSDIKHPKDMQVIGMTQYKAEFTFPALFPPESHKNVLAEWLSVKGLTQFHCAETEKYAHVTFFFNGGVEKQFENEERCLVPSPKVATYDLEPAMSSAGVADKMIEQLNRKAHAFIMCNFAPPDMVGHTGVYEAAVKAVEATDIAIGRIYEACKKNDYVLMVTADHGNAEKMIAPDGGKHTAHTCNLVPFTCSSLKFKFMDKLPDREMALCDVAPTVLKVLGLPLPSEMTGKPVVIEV
Sequence of E. coli iPGM (P37689 whole entry, looked up): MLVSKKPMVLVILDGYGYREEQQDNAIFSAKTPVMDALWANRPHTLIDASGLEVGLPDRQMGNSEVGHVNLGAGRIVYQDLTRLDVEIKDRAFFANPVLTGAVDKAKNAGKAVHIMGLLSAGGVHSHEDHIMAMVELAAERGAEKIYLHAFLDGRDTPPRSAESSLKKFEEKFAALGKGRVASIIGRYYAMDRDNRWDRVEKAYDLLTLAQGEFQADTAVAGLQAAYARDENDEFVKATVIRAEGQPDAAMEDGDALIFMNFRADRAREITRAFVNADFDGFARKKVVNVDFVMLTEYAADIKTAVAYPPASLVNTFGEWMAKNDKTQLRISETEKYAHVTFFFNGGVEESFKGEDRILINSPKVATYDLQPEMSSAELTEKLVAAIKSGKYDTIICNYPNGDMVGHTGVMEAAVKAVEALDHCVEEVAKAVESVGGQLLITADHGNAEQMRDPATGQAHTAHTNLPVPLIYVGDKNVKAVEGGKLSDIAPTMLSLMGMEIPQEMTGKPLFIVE

Row | SMILES | pIC50 E. coli iPGM (E. coli iPGM) | Emax (E. coli iPGM; [1]) | pIC50 B. malayi iPGM (B. malayi iPGM) | Emax (B. malayi iPGM; [2]) | O. volvulus iPGM PIC50, M (O. volvulus iPGM) | Emax (O. volvulus iPGM; [3]) | D. immitis iPGM Max Inhibition (D. immitis iPGM) | E. coli iPGM PIC50, M (E. coli iPGM) | pIC50 O. volvulus iPGM (O. volvulus iPGM) | B. malayi iPGM PIC50, M (B. malayi iPGM) | inhibition at 0.0005 µM (E. coli iPGM; [1]) | inhibition at 0.0005 µM (B. malayi iPGM; [2]) | inhibition at 0.0005 µM (O. volvulus iPGM; [3])
1 | CC[C@H](C)[C@@H]1NC(=O)[C@H](CCC(=O)O)NC(=O)[C@@H]2CCCN2C(=O)[C@H](C)NC(=O)[C@H](CC(N)=O)NC(=O)[C@@H]2CCCN2C(=O)[C@H](Cc2c[nH]c3ccccc23)NC(=O)[C@H](CO)NC(=O)[C@@H](Cc2ccc(O)cc2)NC(=O)CSC[C@@H](C(=O)N[C@@H](CS)C(=O)NCC(N)=O)NC(=O)[C@H](CCCCN)NC(=O)[C@H](Cc2c[nH]c3ccccc23)NC1=O [Bm-1] ({CH2CO}-[dY]SWPNAPEIWKCCG-NH2; thioether N-12) | 5.31 | 60.6 ± 9% | 5.89 | 82.8 ± 0.9% | 5.88 ± 0.53 M | 82.1 ± 5.4% | −85.9 ± 0.2 |  |  |  |  |  | 
2 | CC(C)C[C@@H]1NC(=O)[C@@H](Cc2ccc(O)cc2)NC(=O)CSC[C@@H](C(=O)N[C@@H](CC(N)=O)C(=O)N[C@H](C(=O)N[C@@H](CS)C(=O)NCC(N)=O)[C@@H](C)O)NC(=O)[C@H](CC(N)=O)NC(=O)[C@@H]2CCCN2C(=O)[C@H](Cc2c[nH]c3ccccc23)NC(=O)[C@H](CCC(=O)O)NC1=O [Bm-4] ({CH2CO}-[dY]LEWPNCNTCG-NH2; thioether N-7) |  | 76.3 ± 8.3% | 6.24 | 86.3 ± 1.4% |  | 85.7 ± 6.5% | −88.1 ± 0.8 | 5.56 ± 0.16 M | 6.10 |  |  |  | 
3 | CC(C)C[C@@H]1NC(=O)[C@@H](Cc2ccc(O)cc2)NC(=O)CSC[C@@H](C(=O)N[C@@H](CC(N)=O)C(=O)N[C@H](C(=O)N[C@@H](CS)C(N)=O)[C@@H](C)O)NC(=O)[C@H](CC(N)=O)NC(=O)[C@@H]2CCCN2C(=O)[C@H](Cc2c[nH]c3ccccc23)NC(=O)[C@H](CCC(=O)O)NC1=O [Bm-4a] ({CH2CO}-[dY]LEWPNCNTC-NH2; thioether N-7) |  | 78.3 ± 3.4% |  | 88 ± 0.4% | 6.14 ± 0.62 M | 87.8 ± 4.1% | −90.5 ± 1.5 | 5.58 ± 0.19 M |  | 6.31 ± 0.29 M |  |  | 
4 | CC(C)C[C@@H]1NC(=O)[C@@H](Cc2ccc(O)cc2)NC(=O)CSC[C@@H](C(=O)N[C@@H](CO)C(=O)N[C@H](C(=O)N[C@@H](CS)C(=O)NCC(N)=O)[C@@H](C)O)NC(=O)[C@H](CC(N)=O)NC(=O)[C@@H]2CCCN2C(=O)[C@H](Cc2c[nH]c3ccccc23)NC(=O)[C@H](CC(=O)O)NC1=O [Bm-5] ({CH2CO}-[dY]LDWPNCSTCG-NH2; thioether N-7) |  | 74.3 ± 9.5% | 6.16 | 84.7 ± 1.2% | 5.99 ± 0.69 M | 83.1 ± 7.3% | −87.1 ± 3.2 | 5.54 ± 0.20 M |  |  |  |  | 
5 | C[C@@H](O)[C@H](NC(=O)[C@H](CO)NC(=O)[C@@H]1CSCC(=O)N[C@H](Cc2ccc(O)cc2)C(=O)N2CCC[C@H]2C(=O)N[C@@H](CCC(=O)O)C(=O)N[C@@H](Cc2c[nH]c3ccccc23)C(=O)N2CCC[C@H]2C(=O)N[C@@H](CC(N)=O)C(=O)N1)C(=O)N[C@@H](CS)C(=O)NCC(N)=O [Bm-6] ({CH2CO}-[dY]PEWPNCSTCG-NH2; thioether N-7) |  | 77.4 ± 4.3% | 6.16 | 86.8 ± 0.6% | 6.08 ± 0.53 M | 86 ± 3.2% | −90.2 ± 1.2 | 5.55 ± 0.07 M |  |  |  |  | 
6 | CC(C)[C@@H]1NC(=O)[C@H](C)NC(=O)[C@@H](Cc2ccc(O)cc2)NC(=O)CSC[C@@H](C(=O)N[C@@H](CCCNC(=N)N)C(=O)N[C@H](C(=O)N[C@@H](CS)C(=O)NCC(N)=O)[C@@H](C)O)NC(=O)[C@H](CC(N)=O)NC(=O)[C@@H]2CCCN2C(=O)[C@H](Cc2c[nH]c3ccccc23)NC1=O [Bm-7] ({CH2CO}-[dY]AVWPNCRTCG-NH2; thioether N-7) |  | 69.7 ± 12.3% | 5.28 | 74 ± 10.1% | 5.37 ± 0.52 M | 78 ± 19.9% | −83.1 ± 9.7 | 5.12 ± 0.09 M |  |  |  |  | 
7 | CC(C)C[C@H](NC(=O)[C@H](Cc1ccc(O)cc1)NC(=O)[C@@H]1CSCC(=O)N[C@H](Cc2ccc(O)cc2)C(=O)N[C@@H](CC(=O)O)C(=O)N[C@@H](Cc2ccc(O)cc2)C(=O)N2CCC[C@H]2C(=O)NCC(=O)N[C@@H](CC(=O)O)C(=O)N[C@@H](Cc2c[nH]cn2)C(=O)N1)C(=O)N[C@@H](Cc1ccc(O)cc1)C(=O)NCC(=O)N[C@H](C(=O)N[C@@H](CS)C(=O)NCC(N)=O)[C@@H](C)O [Ce-1] |  | 96.5 ± 4.2% |  | 94 ± 3.4% |  | 95.4 ± 2.6% |  |  |  |  |  |  | 
8 | CC(C)C[C@H](NC(=O)[C@H](Cc1ccc(O)cc1)NC(=O)[C@@H]1CSCC(=O)N[C@H](Cc2ccc(O)cc2)C(=O)N[C@@H](CC(=O)O)C(=O)N[C@@H](Cc2ccc(O)cc2)C(=O)N2CCC[C@H]2C(=O)NCC(=O)N[C@@H](CC(=O)O)C(=O)N[C@@H](Cc2ccc(O)cc2)C(=O)N1)C(=O)N[C@@H](Cc1ccc(O)cc1)C(=O)NCC(=O)N[C@H](C(=O)N[C@@H](CO)C(=O)NCC(N)=O)[C@@H](C)O [Ce-2S] |  | 105 ± 2.5% |  | 97.7 ± 0.6% |  | 97 ± 1.6% |  |  |  |  | 68.1 ± 8.9% | 77.1 ± 7.5% | 69.8 ± 9.3%
9 | CC(C)C[C@H](NC(=O)[C@H](Cc1ccc(O)cc1)NC(=O)[C@@H]1CSCC(=O)N[C@H](Cc2ccc(O)cc2)C(=O)N[C@@H](CC(=O)O)C(=O)N[C@@H](Cc2ccc(O)cc2)C(=O)N2CCC[C@H]2C(=O)NCC(=O)N[C@@H](CC(=O)O)C(=O)N[C@@H](Cc2ccc(O)cc2)C(=O)N1)C(=O)N[C@@H](Cc1ccc(O)cc1)C(=O)NCC(=O)N[C@H](C(N)=O)[C@@H](C)O [Ce-2b] |  | 95.3 ± 9% |  | 91.8 ± 5.4% |  | 80.1 ± 2.1% |  |  |  |  |  |  | 
10 | CC(C)C[C@H](NC(=O)[C@H](Cc1ccc(O)cc1)NC(=O)[C@@H]1CSCC(=O)N[C@H](Cc2ccc(O)cc2)C(=O)N[C@@H](CC(=O)O)C(=O)N[C@@H](Cc2ccc(O)cc2)C(=O)N2CCC[C@H]2C(=O)NCC(=O)N[C@@H](CC(=O)O)C(=O)N[C@@H](Cc2ccc(O)cc2)C(=O)N1)C(=O)N[C@@H](Cc1ccc(O)cc1)C(=O)NCC(N)=O [Ce-2c] |  | 89.1% |  | 88.2% |  | 78.4% |  |  |  |  |  |  | 
11 | CC(C)C[C@H](NC(=O)[C@H](Cc1ccc(O)cc1)NC(=O)[C@@H]1CSCC(=O)N[C@H](Cc2ccc(O)cc2)C(=O)N[C@@H](CC(=O)O)C(=O)N[C@@H](Cc2ccc(O)cc2)C(=O)N2CCC[C@H]2C(=O)NCC(=O)N[C@@H](CC(=O)O)C(=O)N[C@@H](Cc2ccc(O)cc2)C(=O)N1)C(N)=O [Ce-2e] ({CH2CO}-[dY]DYPGDYCYL-NH2; thioether N-8) |  | 94.5 ± 9% |  | 82.7 ± 6.1% |  | 55.5 ± 1.4% |  |  |  |  |  |  | 
12 | NC(=O)[C@H](Cc1ccc(O)cc1)NC(=O)[C@@H]1CSCC(=O)N[C@H](Cc2ccc(O)cc2)C(=O)N[C@@H](CC(=O)O)C(=O)N[C@@H](Cc2ccc(O)cc2)C(=O)N2CCC[C@H]2C(=O)NCC(=O)N[C@@H](CC(=O)O)C(=O)N[C@@H](Cc2ccc(O)cc2)C(=O)N1 [Ce-2f] ({CH2CO}-[dY]DYPGDYCY-NH2; thioether N-8) |  | 79.6% |  | 14.8% |  | -4.3% |  |  |  |  |  |  | 
13 | CC[C@H](C)[C@@H]1NC(=O)[C@H](CCCNC(=N)N)NC(=O)[C@H](Cc2ccccc2)NC(=O)[C@@H]2CCCN2C(=O)[C@H](CC(N)=O)NC(=O)[C@H](C)NC(=O)[C@H](CC(C)C)NC(=O)[C@H]([C@@H](C)O)NC(=O)[C@H]([C@@H](C)CC)NC(=O)[C@H](Cc2ccc(O)cc2)NC(=O)CSC[C@@H](C(=O)NCC(N)=O)NC(=O)[C@H](Cc2c[nH]cn2)NC(=O)[C@H](CC(C)C)NC1=O [Ce-3] ({CH2CO}-YITLANPFRILHCG-NH2; thioether N-13) |  | 91.4 ± 1.3% |  | 13.3 ± 2% | 5.26 ± 0.18 M | 22.9 ± 30.8% | −30.1 ± 32.2 | 6.27 ± 0.10 M |  |  |  |  | 
14 | CC[C@H](C)[C@@H]1NC(=O)[C@H](CCCNC(=N)N)NC(=O)[C@H](Cc2ccccc2)NC(=O)[C@@H]2CCCN2C(=O)[C@H](CC(N)=O)NC(=O)[C@H](C)NC(=O)[C@H](CC(C)C)NC(=O)[C@H]([C@@H](C)O)NC(=O)[C@H]([C@@H](C)O)NC(=O)[C@H](Cc2ccc(O)cc2)NC(=O)CSC[C@@H](C(=O)NCC(N)=O)NC(=O)[C@H](Cc2c[nH]cn2)NC(=O)[C@H](CC(C)C)NC1=O [Ce-4] ({CH2CO}-YTTLANPFRILHCG-NH2; thioether N-13) |  | 44.3 ± 1.9% |  | 2.9 ± 3.3% | 5.37 ± 0.14 M | 23 ± 35.7% | −22.1 ± 35.5 |  |  |  |  |  | 
